Test results from US20230096137A1, “COMPOSITION FOR LITHOGRAPHY AND PATTERN FORMATION METHOD” (Mitsubishi Gas Chemical Company, Inc., priority 2020, published 2023).

Test: Safe solvent solubility test of compound (PGMEA)
Assay type: physicochemical
Conditions: 23° C., ultrasonic 30 minutes, visual
Method: (1) Safe Solvent Solubility Test of Compound
The solubility of the compound in PGMEA was evaluated according to the following criteria using the amount dissolved in each solvent. The amount of dissolution was measured at 23° C. by precisely weighing the compound into a test tube, adding a target solvent so as to attain a predetermined concentration, applying ultrasonic waves for 30 minutes in an ultrasonic cleaner, and then visually observing the subsequent state of the fluid.
A: 5.0% by mass≤Amount of dissolution
B: 2.0% by mass≤Amount of dissolution<5.0% by mass
C: Amount of dissolution<2.0% by mass

| Structure (SMILES) | Safety solvent solubility PGMEA |
| --- | --- |
| CC(C)(COc1c(I)cc(N2CC=CC2)cc1I)COc1c(I)cc(N2CC=CC2)cc1I [BMI-1] | A (5.0% by mass≤Amount of dissolution) |
| Cc1cc(C(c2ccc(I)cc2)c2cc(C)c(O)c(C)c2)cc(C)c1O [BisB-1] | A (5.0% by mass≤Amount of dissolution) |
| Oc1ccc(-c2ccc(O)c(C(c3cc(-c4ccc(O)cc4)ccc3O)c3cc(I)cc(I)c3O)c2)cc1 [BisB-2] | A (5.0% by mass≤Amount of dissolution) |
| Oc1ccc2c3c(ccc2c1I)Oc1ccc2c(I)c(O)ccc2c1C3c1ccc(-c2ccccc2)cc1 [XBisN-3] | A (5.0% by mass≤Amount of dissolution) |
| Oc1ccc2c3c(ccc2c1)Oc1ccc2cc(O)ccc2c1C3c1ccc(-c2ccccc2)cc1 [XBisN-C1, reference compound] | B (2.0% by mass≤Amount of dissolution<5.0% by mass) |
| Oc1ccc2c3c(ccc2c1)Oc1ccc2cc(O)ccc2c1C3c1cccc(I)c1 [XbisN-1] | B (2.0% by mass≤Amount of dissolution<5.0% by mass) |
